The text below walks through data of the C3SDB collision cross section collection.

Structures are written as SMILES. Counter-ions that a name gives are not always drawn.

For the first data set the following is noted: [M+H-H2O]+; instrument: TW; calibrated with polyalanine and drug standards.
With `COc1ccc2c(c1)OC1(O)COc3cc(OC)c(OC)cc3C1=C2` (stereo not given) [12a-HYDROXY-5-DEOXYDEHYDROMUNDUSERONE], the “collision cross section (N2)” value is given as 173 Å².

The data set is the same for the next values; noted with them: [M+H]+; instrument: TW; calibrated with polyalanine and drug standards.
As for `COc1cc(OC)cc(OC)c1` [1,3,5-TRIMETHOXYBENZENE], the “collision cross section (N2)” value amounted to 130.6 Å². With `CC1(C)C2CC(=O)[C@]3(C)C(CC[C@@]4(C)[C@H](c5ccoc5)OC(=O)C5OC543)[C@@]2(C)[C@@H](O)C[C@H]1O` (stereo not given in full) [1,3-DIDEACETYL-7-DEACETOXY-7-OXOKHIVORIN], the “collision cross section (N2)” value is listed as 200.2 Å².

Take `COc1cc(O)c(C(=O)/C=C/c2ccc(OC)c(O)c2)c(OC)c1` [2',3-DIHYDROXY-4,4',6'-TRIMETHOXYCHALCONE]: the “collision cross section (N2)” value is 177.1 Å². As to `COc1ccc(/C=C/C(=O)c2ccc(O)cc2O)cc1` [2',4'-DIHYDROXY-4-METHOXYCHALCONE], the “collision cross section (N2)” value is given as 162.2 Å².

Turning to `O=C(/C=C/c1ccccc1)c1ccc(O[C@@H]2O[C@H](CO)[C@@H](O)[C@H](O)[C@H]2O)cc1O` [2',4'-DIHYDROXYCHALCONE 4'-GLUCOSIDE], the “collision cross section (N2)” value is on record as 200.6 Å². Regarding `O=C(/C=C/c1ccc(O)cc1)c1ccccc1O` [2',4-DIHYDROXYCHALCONE], the “collision cross section (N2)” value is 153 Å². In the case of `COc1ccc(/C=C/C(=O)c2cc(O)ccc2O)cc1` [2',5'-DIHYDROXY-4-METHOXYCHALCONE], the “collision cross section (N2)” value is on record as 162.1 Å².

With `COc1ccc(-c2coc3cc(O)ccc3c2=O)c(OC)c1` [2'-METHOXYFORMONETIN], the “collision cross section (N2)” value turned out to be 164.6 Å².

With `COc1ccc(C(=O)c2ccc(O)cc2)c(O)c1O` [2,3,4'-TRIHYDROXY-4-METHOXYBENZOPHENONE], the “collision cross section (N2)” value is 152.9 Å². Still for that read-out and setting: as for `CCOc1ccc(C(=O)c2ccc(O)c(O)c2O)cc1` [2,3,4-TRIHYDROXY-4'-ETHOXYBENZOPHENONE], the figure is 160.4 Å²; as for `COc1cc(O)c(C)c(O)c1` [2,6-DIHYDROXY-4-METHOXYTOLUENE], 127.1 Å²; as for `COc1cc(OC)c2c(=O)c(-c3ccccc3)c(C)oc2c1OC` [2-METHYL-5,7,8-TRIMETHOXYISOFLAVONE], 173.6 Å².

Turning to `COc1ccc(-c2oc3cc(OC)c(OC)c(OC)c3c(=O)c2OC)cc1` [3,4',5,6,7-PENTAMETHOXYFLAVONE], the “collision cross section (N2)” value is 181.9 Å². For the molecule `COc1ccc(-c2oc3ccccc3c(=O)c2OC)cc1` [3,4'-DIMETHOXYFLAVONE], the “collision cross section (N2)” value worked out at 159.1 Å². Consider `COc1ccc2oc(-c3ccccc3)c(OC)c(=O)c2c1` [3,6-DIMETHOXYFLAVONE], for which the “collision cross section (N2)” value was found to be 159.9 Å². On to `CC(=O)O[C@H]1C[C@@H](O)C(C)(C)C2C[C@@H](OC(C)=O)[C@]3(C)C(CC[C@@]4(C)[C@H](c5ccoc5)OC(=O)C5OC543)[C@]21C` (stereo not given in full) [3-DEACETYLKHIVORIN], for which the “collision cross section (N2)” value is on record as 215.9 Å². As to `CC(=O)O[C@H]1CC[C@@]2(C)C(C[C@@H](OC(C)=O)[C@@]3(C)C4=CC(=O)O[C@@H](c5ccoc5)[C@]4(C)CCC23)C1(C)C` (stereo partly drawn) [3-DEOXO-3beta-ACETOXYDEOXYDIHYDROGEDUNIN], the “collision cross section (N2)” value came to 219.7 Å². On the same count and under the same terms, the figure for `C=C1[C@H]2CC[C@@]3(C)[C@H](c4ccoc4)OC(=O)C[C@]13O[C@H]1C[C@H](O)C(C)(C)[C@H](CC(=O)OC)[C@]12C` [3-DEOXY-3beta-HYDROXYANGOLENSIC ACID METHYL ESTER] is 204.1 Å²; for `COc1cccc(O)c1O` [3-METHOXYCATECHOL] it is 124.7 Å². Same read-out and setting: the figure for `CC1(C)CC23C(=O)CCC(O)C2(C)CCC13` (stereo not given) [3-NOR-3-OXOPANASINSAN-6-OL] is 146.1 Å². As for `S=c1ccss1` [3H-1,2-DITHIOLE-3-THIONE], the “collision cross section (N2)” value is 120.4 Å².

On to `CC(=O)O[C@@H]1CC[C@@]2(C)C(C[C@@H](OC(C)=O)[C@@]3(C)C4=CC(=O)O[C@@H](c5ccoc5)[C@]4(C)CCC23)C1(C)C` (stereo partly drawn) [3alpha-ACETOXYDIHYDRODEOXYGEDUNIN], for which the “collision cross section (N2)” value came out at 218 Å². Consider `CC(=O)O[C@H]1CC[C@@]2(C)C(C[C@@H](OC(C)=O)[C@]3(C)C2CC[C@@]2(C)[C@H](c4ccoc4)OC(=O)[C@H]4O[C@]423)C1(C)C` (stereo partly drawn) [3beta-ACETOXYDEOXODIHYDROGEDUNIN], for which the “collision cross section (N2)” value was 219.2 Å². Take `CC(=O)O[C@@H]1CC2C(C)(CC[C@H](O)C2(C)C)C2CC[C@]3(C)C(=CC(=O)O[C@H]3c3ccoc3)C21C` (stereo partly drawn) [3beta-HYDROXYDEOXODIHYDRODEOXYGEDUNIN]: the “collision cross section (N2)” value is listed as 207.1 Å². The same measure, in the same setting: the figure for `COc1ccc(C(=O)/C=C/c2ccccc2)cc1` [4'-METHOXYCHALCONE] is 153.8 Å²; for `Cc1c(O)c(=O)n(-c2ccccc2)n1C` [4-HYDROXYANTIPYRINE] it is 141.4 Å².

In the case of `COc1ccc(-c2cc(=O)c3c(O)cc(OC)c(OC)c3o2)c(OC)c1` [5-HYDROXY-2',4',7,8-TETRAMETHOXYFLAVONE], the “collision cross section (N2)” value is listed as 182 Å². Consider `COc1ccc(-c2coc3cc(OC)ccc3c2=O)cc1` [7,4'-DIMETHOXYISOFLAVONE], for which the “collision cross section (N2)” value was 160.3 Å². Still for that read-out and setting: as for `Cn1c(=O)c2[nH]c(C3CCCC3)nc2n(C)c1=O` [8-CYCLOPENTYLTHEOPHYLLINE], the figure is 158.6 Å²; as for `COC(=O)C[C@H]1C(C)(C)C2(O)OC34CC2C(=O)[C@]1(C)C3CC[C@]1(C)C4=CC(=O)O[C@H]1c1ccoc1` (stereo partly drawn) [8beta-HYDROXYCARAPIN, 3,8-HEMIACETAL], 208.8 Å²; as for `CC[C@@]1(O)C(=O)OCc2c1cc1n(c2=O)Cc2cc3cc(O)ccc3nc2-1` [10-HYDROXYCAMPTOTHECIN], 187 Å². As to `COc1ccc(-c2cc(=O)c3c(OC(C)=O)cc(OC(C)=O)cc3o2)cc1` [ACACETIN DIACETATE], the “collision cross section (N2)” value was determined as 184.8 Å². For `CC(=O)OC1CN2CCC1CC2` (stereo not given) [ACECLIDINE], the “collision cross section (N2)” value came to 136.2 Å². Consider `CC(=O)Nc1ccc(S(=O)(=O)c2ccc(NC(C)=O)cc2)cc1` [ACEDAPSONE], for which the “collision cross section (N2)” value is on record as 171.2 Å². Take `CC(=O)c1ccc(S(=O)(=O)NC(=O)NC2CCCCC2)cc1` [ACETOHEXAMIDE]: the “collision cross section (N2)” value is recorded as 178.2 Å².

With `CC(=O)N[C@@H](Cc1c[nH]c2ccccc12)C(=O)O` [ACETYLTRYPTOPHAN], the “collision cross section (N2)” value came out at 152.3 Å². Same read-out and setting: the figure for `Nc1nc(=O)c2ncn(COCCO)c2[nH]1` [ACYCLOVIR] is 146.5 Å²; for `Nc1ncnc2c1ncn2[C@@H]1O[C@H](COP(=O)(O)O)[C@@H](O)[C@H]1O` [ADENOSINE PHOSPHATE] it is 167.6 Å²; for `CC(C)C[C@H](NC(=O)[C@H](C)N)C(=O)O` [ALANYL-dl-LEUCINE] it is 152.5 Å². Same read-out and setting: as for `NCCCNCCSP(=O)(O)O` [AMIFOSTINE], the figure is 146.9 Å². `Nc1cc(-c2ccncc2)c[nH]c1=O` [AMRINONE]: the “collision cross section (N2)” value is given as 139 Å². As for `COc1ccc2c(=O)c(CC(=O)O)coc2c1` [ANHYDROBRAZILIC ACID], the “collision cross section (N2)” value came to 143.1 Å². On the same count and under the same terms, the figure for `CN1C2C[C@H](OC(=O)[C@H](CO)c3ccccc3)C[C@H]1[C@@H](O)C2` [ANISODAMINE HYDROBROMIDE] is 171.1 Å²; for `O=c1cc(-c2ccc(O)cc2)oc2cc(O[C@@H]3O[C@H](CO)[C@@H](O)[C@H](O)[C@H]3O[C@@H]3OC[C@](O)(CO)[C@H]3O)cc(O)c12` [APIIN] it is 229.3 Å²; for `O=C1CCc2ccc(OCCCCN3CCN(c4cccc(Cl)c4Cl)CC3)cc2N1` [ARIPIPRAZOLE] it is 203.5 Å². Turning to `c1cc2c(cc1[C@H]1OC[C@H]3[C@@H]1CO[C@H]3c1ccc3c(c1)OCO3)OCO2` [ASARININ (-)], the “collision cross section (N2)” value came out at 171 Å². On to `CCCCCCCCCCCCCCCC(=O)OC[C@H](O)[C@H]1OC(=O)C(O)=C1O` [ASCORBYL PALMITATE], for which the “collision cross section (N2)” value was 204.8 Å². On the same count and under the same terms, the figure for `COC(=O)[C@H](Cc1ccccc1)NC(=O)[C@@H](N)CC(=O)O` [ASPARTAME] is 167.6 Å²; for `CC(C)=CCC/C(C)=C/COc1ccc2ccc(=O)oc2c1` [AURAPTENE] it is 158.3 Å²; for `COc1ccc(C(=O)CC(=O)c2ccc(C(C)(C)C)cc2)cc1` [AVOBENZONE] it is 181.2 Å².

As to `O=C(CCCN1CCN(c2ccccn2)CC1)c1ccc(F)cc1` [AZAPERONE], the “collision cross section (N2)” value is given as 180 Å². As for `Cn1cnc([N+](=O)[O-])c1Sc1ncnc2nc[nH]c12` [AZATHIOPRINE], the “collision cross section (N2)” value stood at 155.1 Å². On to `O=c1cc(-c2ccccc2)oc2cc(O)c(O)c(O)c12` [BAICALEIN], for which the “collision cross section (N2)” value was determined as 153.8 Å². As for `O=C(CCCl)NCc1ccccc1` [BECLAMIDE], the “collision cross section (N2)” value is reported as 142.3 Å². As for `NS(=O)(=O)c1cc2c(cc1C(F)(F)F)NC(Cc1ccccc1)NS2(=O)=O` (stereo not given) [BENDROFLUMETHIAZIDE], the “collision cross section (N2)” value is on record as 188.6 Å².

The data set is the same for the next values; noted with them: [M+Na]+; instrument: TW; calibrated with polyalanine and drug standards.
As for `CC(C)CC(NC(=O)OCC1c2ccccc2-c2ccccc21)C(=O)O` (stereo in doubt) [N- (9-FLUORENYLMETHOXYCARBONYL)-L-LEUCINE], the “collision cross section (N2)” value is given as 183.3 Å².

On to `COC(=O)C[C@H]1C(C)(C)[C@@H](O)[C@@H]2CC3=C4CC(O)O[C@@H](c5ccoc5)[C@]4(C)CCC3[C@@]1(C)C2=O` (stereo partly drawn) [3,16-DIDEOXYMEXICANOLIDE-3beta-DIOL], for which the “collision cross section (N2)” value came to 202.8 Å². Same read-out and setting: the figure for `C#CCCCCCCCCCCCC(O)CC(O)COC(C)=O` (stereo not given) [AVOCADYNE ACETATE] is 184 Å²; for `CCCCCCCCCCCCCCCCCCOCC(O)CO` (stereo not given) [BATYL ALCOHOL] it is 202.8 Å².
